In patent publication US8815774B2, “Herbicidal composition and method of use thereof” (Syngenta Crop Protection LLC, priority 2006, dated 2014):

What was measured:
Type in all cases: in vivo
[1] = test system: large crabgrass (Digitaria sanguinalis); assay: Glasshouse trial, control of large crabgrass, pre-emergence application
Description: A glasshouse trial was carried out. Large crabgrass seeds were sown into standard glasshouse potting mix (1:1 v/v Promix:Vero sand soil) contained in 10 cm square plastic pots. Treatments were replicated three times. Mesotrione (in the form Callisto® 480SE) was applied pre-emergence to large crabgrass (Digitaria sanguinalis) at either 12 g ai/ha or 24 g ai/ha with or without sulfentrazone (in the form Authority®). When used, sulfentrazone was applied at a rate of 140 g ai/ha or 280 g ai/ha. The adjuvant system was X-77 at 0.1% v/v in deionised water. 200 litres of herbicide/adjuvant system was used per hectare. General weed control was evaluated at 7 days after treatment (DAT). It is noted that all herbicides were applied at reduced field rates because herbicide effects are magnified in a glasshouse environment. Rates were chosen to give a 50 to 70% level of control with herbicides applied alone as this allows for detection of any synergistic effect when tank mixtures are used. It is noted that control of large crabgrass with the higher rate of mesotrione alone was too high to allow for detection synergy when mesotrione was mixed with sulfentrazone. The lower rate of mesotrione was therefore used in this analysis. […] The results were evaluated using the Colby formula. The expected result for (A+B) is (A+B)−(A×B/100) where A and B are the ‘observed’ results for A and B on their own.

[2] = test system: Trifolium repens (white clover); assay: Glasshouse trial, control of white clover, post-emergence application
Description: (§1) A glasshouse trial was carried out. Large crabgrass seeds were sown into standard glasshouse potting mix (1:1 v/v Promix:Vero sand soil) contained in 10 cm square plastic pots. Treatments were replicated three times. Mesotrione (in the form Callisto® 480SE) was applied pre-emergence to large crabgrass (Digitaria sanguinalis) at either 12 g ai/ha or 24 g ai/ha with or without sulfentrazone (in the form Authority®). When used, sulfentrazone was applied at a rate of 140 g ai/ha or 280 g ai/ha. The adjuvant system was X-77 at 0.1% v/v in deionised water. 200 litres of herbicide/adjuvant system was used per hectare. General weed control was evaluated at 7 days after treatment (DAT). It is noted that all herbicides were applied at reduced field rates because herbicide effects are magnified in a glasshouse environment. Rates were chosen to give a 50 to 70% level of control with herbicides applied alone as this allows for detection of any synergistic effect when tank mixtures are used.
(§2) It is noted that control of large crabgrass with the higher rate of mesotrione alone was too high to allow for detection synergy when mesotrione was mixed with sulfentrazone. The lower rate of mesotrione was therefore used in this analysis. […] The results were evaluated using the Colby formula. The expected result for (A+B) is (A+B)−(A×B/100) where A and B are the ‘observed’ results for A and B on their own.
(§3) A glasshouse trial was set up as described in Example 1, except using carfentrazone instead of sulfentrazone, Trifolium repens (white clover) instead of large crabgrass, and different herbicide rates.
A glasshouse trial was set up as described in Example 2, except using applying the mixture post emergence rather than pre-emergence.

[3] = test system: Trifolium repens (white clover); assay: Glasshouse trial, control of white clover, pre-emergence application
Description: as §1, §2, §3

[4] = carfentrazone 18 g ai/ha plus mesotrione 100 g ai/ha
[5] = carfentrazone 18 g ai/ha plus mesotrione 150 g ai/ha
[6] = carfentrazone 36 g ai/ha plus mesotrione 100 g ai/ha
[7] = carfentrazone 36 g ai/ha plus mesotrione 150 g ai/ha
[8] = carfentrazone 18 g ai/ha plus mesotrione 25 g ai/ha
[9] = carfentrazone 18 g ai/ha plus mesotrione 50 g ai/ha
[10] = carfentrazone 36 g ai/ha plus mesotrione 25 g ai/ha
[11] = carfentrazone 36 g ai/ha plus mesotrione 50 g ai/ha

Structure (SMILES) | synergy (Colby formula and Student-Newman-Keuls multiple range test) ([1]; mesotrione 12 g ai/ha with sulfentrazone 140 g ai/ha) | Expected control (Colby formula), Plus Mesotrione at 12 g ai/ha ([1]; sulfentrazone 140 g ai/ha plus mesotrione 12 g ai/ha, 7 DAT) | Actual control, Plus Mesotrione at 12 g ai/ha ([1]; sulfentrazone 140 g ai/ha tank mixed with mesotrione 12 g ai/ha, 7 DAT) | control of large crabgrass, herbicide on its own ([1]; sulfentrazone alone (lower rate, 140 g ai/ha), 7 DAT) | Actual control, Plus Mesotrione at 100 g ai/ha [2, 4] | Expected control, Plus Mesotrione at 100 g ai/ha [2, 4] | Actual control, Plus Mesotrione at 150 g ai/ha [2, 5] | Expected control, Plus Mesotrione at 150 g ai/ha [2, 5] | Actual control, Plus Mesotrione at 100 g ai/ha [2, 6] | Expected control, Plus Mesotrione at 100 g ai/ha [2, 6] | Actual control, Plus Mesotrione at 150 g ai/ha [2, 7] | Expected control, Plus Mesotrione at 150 g ai/ha [2, 7] | Actual control, Plus Mesotrione at 25 g ai/ha [3, 8] | Expected control, Plus Mesotrione at 25 g ai/ha [3, 8] | Actual control, Plus Mesotrione at 50 g ai/ha [3, 9] | Expected control, Plus Mesotrione at 50 g ai/ha [3, 9] | Actual control, Plus Mesotrione at 25 g ai/ha [3, 10] | Expected control, Plus Mesotrione at 25 g ai/ha [3, 10] | Actual control, Plus Mesotrione at 50 g ai/ha [3, 11] | Expected control, Plus Mesotrione at 50 g ai/ha [3, 11]
Cc1nn(-c2cc(NS(C)(=O)=O)c(Cl)cc2Cl)c(=O)n1C(F)F [Sulfentrazone, 2′,4′-dichloro-5′-(4-difluoromethyl-4,5-dihydro-3-methyl-5-oxo-1H-1,2,4-triazol-1-yl)methanesulfonanilide] | synergy was seen | 87.0 | 100 | 75% | – | – | – | – | – | – | – | – | – | – | – | – | – | – | – | –
Cc1nn(-c2cc(CC(Cl)C(=O)O)c(Cl)cc2F)c(=O)n1C(F)F (centres unmarked) [Carfentrazone] | – | – | – | – | 70 | 43 | 93 | 65 | 72 | 53 | 93 | 71 | 55 | 50 | 75 | 62 | 73 | 49 | 85 | 61
